# Columns and labels:
# [1] = In vivo SPECT-CT imaging after intravenous tail vein injection of 201Tl; design: species or system CBA/CaJ mice
# Description: To test whether or not 201Tl can pass through the cochlear intrastrial fluid blood barrier, so as to image K^+ in a bony structure like the cochlea using SPECT techniques, in vivo experiments were performed with CBA/CaJ mice. Young adult mice were injected with TlCl radioactive solution intravenously with a dose of ˜400 μCi/animal in the tail vein. The Siemens Inveon® multimodality microPET/SPECT/CT platform was used (mouse brain pinhole collimator with a total of 12 projections) to image the brain, cochlea and whole body. CT imaging was also carried out for anatomical referencing. […] One animal was imaged for five continuous days, and as expected, the SPECT signal decreased over that time period in the cochlea and other body parts.
# The region of interest (ROI) was drawn for the cochlea using anatomical images from the CT scans. Similarly, radiation signals (mean image intensity) from the two sides (left and right cochleae) were equal (FIG. 4b), indicating symmetrical absorption of the ^201Tl for the peripheral auditory system (cochlea). […] This observation (^201Tl maximum accumulation in the kidney) was consistent with the reported literature as ^201Tl is known to maximally accumulate there 17,18
# After baseline phantom in vitro experiments were completed, in vivo imaging experiments were conducted using young adult CBA/CaJ mice (2-3 months old, n=6, 3 females and 3 males) to determine whether 201Tl can pass through the cochlear intrastrial fluid/blood barrier and if the bony cochlea can be imaged using SPECT. Each mouse was injected with approximately 400 μCi ^201Tl radiation into tail veins through a catheter. Similar to the in vitro phantom experiments, a total of 12 projections over a 360 arc were used to collect the images. During the imaging data collection, animals were under gas anesthesia (1-2% isoflurane) in an air-warmed imaging chamber (Harvard Apparatus, Cambridge, MA) to keep body temperature constant at 37° C., and the breathing rate and pattern were continuously monitored. For anatomical referencing of the cochlea, CT imaging was also conducted in conjunction with SPECT. The region of Interest (ROI) was drawn with the help of the CT referencing. Images were reconstructed using maximum-likely-hood expectation maximization (MLEM) algorithm, and finally, 3-D images were reconstructed with scattering and attenuation corrections.
# [2] = Ex vivo SPECT-CT imaging and radioactivity measurements (gamma spectroscopy) of dissected cochleae and body tissues; format: in vivo, CBA/CaJ mice
# Description: For further confirmation, a pair of cochleae from a single mouse were dissected and ex vivo measurements (SPECT-CT image and radioactivity measurements-gamma spectroscopy) were carried out. […] Mean intensity and total photons were calculated from both the cochleae SPECT images. […] Moreover, energy spectra were measured using a BioDEx ion chamber and both cochleae had the same spectra, with the peak energy around 68 KeV—same as ^201Tl energy peak (FIG. 6e). These ex vivo measurements further confirm the equal distribution of ^201Tl for both inner ears.
# In addition, the radiation signal was measured from various body parts, in comparison to the cochlea. The measurements were calculated per gm of tissue (specific activity) to make comparisons among various tissues and specific activities were further normalized with brain specific activity.
# At the end of the imaging session, animals were sacrificed and ex vivo experiments were carried out in which radiation signals were measured from various body regions, including the brain and cochlea. A pair of cochleae were dissected and ex vivo measurements were done using both SPECT-CT imaging as well as radioactivity measurements (BioDex 500 ion chamber; gamma spectroscopy). Images were reconstructed from SPECT-CT data as per the same algorithms and protocols used for the in-vivo experiments.
smiles,measurement,setting,value
"[Cl][201Tl] [^201Tl, Thallium-201]",Sex difference in cochlear SPECT signal (mean image intensity),[1]; 3 males vs 3 females,no sex difference
same,Time after injection at which SPECT radiation signals were observed from the cochlea,[1]; first scan after i.v. injection,within minutes
same,"Radiation signals (mean image intensity), left vs right cochleae",[1]; in vivo SPECT,equal
same,Average cochlear SPECT signal relative to brain signal,"[1]; in vivo SPECT, ROI drawn with CT, ~400 μCi/animal i.v. tail vein",about two
same,Entry of the radiotracer into the bony cochlea,[1]; in vivo SPECT-CT of mouse cochlea,can enter the bony cochlea
same,Change of SPECT signal in the cochlea and other body parts over time,[1]; one animal imaged for five continuous days,decreased
same,"Site of maximum accumulation, whole body SPECT imaging","[1]; whole body SPECT, ~400 μCi/animal i.v.",kidney
same,"Mean intensity and total photons, cochlea 1 vs cochlea 2",[2]; ex vivo SPECT-CT of a dissected pair of cochleae from a single mouse,no quantitative difference
same,"Specific activity (per gm of tissue, normalized to brain) of the cochlea compared with other body parts",[2]; ex vivo radioactivity measurements,"highest signal among most body parts, except kidney"
same,Cochlear radioactivity signal relative to brain,"[2]; ex vivo, gamma spectroscopy of body tissues",2.2 times

# — US12433549B1, “Molecular imaging of the cochlea” (University of South Florida, priority 2023, dated 2025)
